Reference: paper PMC10762035, “Molecular basis of human trace amine-associated receptor 1 activation” (Nature Communications, 2024)
Residue numbers refer to the chain shown, from its start. Several values for one entry are separate records, joined by “and”; a condition that tells them apart may be missing. Equal entries are not always repeated.

Legend:
Type in all cases: cell-based
hTA1 T271N = target: T1, hTA1 T271N (Homo sapiens, UniProt Q96RJ0, T271N); experiment: GloSensor cAMP accumulation assay, T271N mutant
T1 construct: expressed in transfected cells; host or cells: HEK293T
T1 sequence (Q96RJ0 1-339 T271N): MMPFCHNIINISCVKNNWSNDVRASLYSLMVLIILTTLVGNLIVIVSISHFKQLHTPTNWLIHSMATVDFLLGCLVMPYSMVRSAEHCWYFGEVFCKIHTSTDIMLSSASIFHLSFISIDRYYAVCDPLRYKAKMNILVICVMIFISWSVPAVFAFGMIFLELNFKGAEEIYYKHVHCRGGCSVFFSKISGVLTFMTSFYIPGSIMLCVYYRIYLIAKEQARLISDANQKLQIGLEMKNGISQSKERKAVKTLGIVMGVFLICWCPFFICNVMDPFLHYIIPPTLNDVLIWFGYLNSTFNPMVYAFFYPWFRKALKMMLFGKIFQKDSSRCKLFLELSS

hTA1 C178S = target: T2, hTA1 C178S (Homo sapiens, UniProt Q96RJ0, C178S); experiment: GloSensor cAMP accumulation assay, C178S mutant; conditions: for C178S - Normalized Luminescence Counts (N=2): log[Compound], single replicates
T2 construct: expressed in transfected cells; host or cells: HEK293T
T2 sequence (Q96RJ0 1-339 C178S): T1 sequence (Q96RJ0 1-339 T271N) with C178S, N271T

hTA1 R83H = target: T3, hTA1 R83H (Homo sapiens, UniProt Q96RJ0, R83H); experiment: GloSensor cAMP accumulation assay, R83H mutant;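 also: cells transiently co-expressing hTA1 and a cAMP GloSensor, luminescence read 30 min after agonist addition at room temperature, concentration–response fitted by non-linear regression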
T3 construct: expressed in transfected cells; host or cells: HEK293T
T3 sequence (Q96RJ0 1-339 R83H): T1 sequence (Q96RJ0 1-339 T271N) with R83H, N271T

hTA1 C88/178S = target: T4, hTA1 C88/178S (Homo sapiens, UniProt Q96RJ0, C178S/C88S); experiment: GloSensor cAMP accumulation assay, C88S/C178S double mutant; conditions: for Normalized Luminescence Counts (N=2): log[Compound], single replicate values
T4 construct: expressed in transfected cells; host or cells: HEK293T
T4 sequence (Q96RJ0 1-339 C88S/C178S): T1 sequence (Q96RJ0 1-339 T271N) with C88S, C178S, N271T

[1] = C178S, each row one experiment (N=2), 3 replicates
[2] = C88S, C178S, each row is one independent experiment, 3 replicates

## Cc1c(F)cccc1[C@H]1COC(N)=N1 [Ro5263397]
hTA1 T271N; T271N mutant minus WT average, Figure 5B
  ΔpEC50 values (each mutant value - WT average), Mean: -0.511 and -0.5494
hTA1 T271N; T271N mutant, Figure 5B, each row one independent experiment (3 replicates)
  pEC50 values, Mean: 8.32 and 8.282
hTA1 T271N; T271N mutant, Figure 5B, β-PEA = 100, each row one independent experiment (3 replicates)
  Emax values, Mean: 116.619 and 99.549
hTA1 T271N; T271N, n=2
  Span ± SEM (Emax normalized to β-PEA): 108.08 ± 8.54
  pEC50 ± SEM: 8.3 ± 0.07
hTA1 T271N; T271N, n=2, read-out: EC50
  EC50: 5 nM
hTA1 C178S; [1]
  pEC50 values, Mean: 8.162 and 8.579
  ΔpEC50 values (each mutant value - WT average), Mean: -0.6693 and -0.2522
hTA1 C178S; C178S, n=2
  Span ± SEM (Emax normalized to β-PEA): 105.17
  pEC50 ± SEM: 8.37 ± 0.09
hTA1 C178S; C178S, n=2, read-out: EC50
  EC50: 4.26 nM
hTA1 C178S; C178S, relative to β-PEA
  Emax: 105.2%
hTA1 C178S; C178S, β-PEA = 100, each row one experiment (N=2), 3 replicates
  Emax values, Mean: 92.0056 and 118.332
hTA1 C178S; M = -5
  C178S - Normalized Luminescence Counts (N=2): 116.512 and 98.9884 and 102.82 and 110.453 and 111.171 and 57.8292
hTA1 C178S; M = -5.522
  C178S - Normalized Luminescence Counts (N=2): 90.6706 and 92.2127 and 73.4274 and 137.917 and 164.274 and 131.185
hTA1 C178S; M = -6
  C178S - Normalized Luminescence Counts (N=2): 100.344 and 93.0071 and 81.792 and 122.18 and 154.88 and 155.328
hTA1 C178S; M = -6.522
  C178S - Normalized Luminescence Counts (N=2): 92.3996 and 91.979 and 98.7081 and 121.313 and 114.761 and 110.333
hTA1 C178S; M = -7
  C178S - Normalized Luminescence Counts (N=2): 78.9882 and 76.0443 and 77.119 and 120.565 and 138.096 and 118.74
hTA1 C178S; M = -7.522
  C178S - Normalized Luminescence Counts (N=2): 86.6519 and 72.9134 and 81.9322 and 98.8752 and 109.017 and 95.5544
hTA1 C178S; M = -8
  C178S - Normalized Luminescence Counts (N=2): 48.9411 and 58.2403 and 50.0626 and 103.512 and 85.5323 and 112.428
hTA1 C178S; M = -8.522
  C178S - Normalized Luminescence Counts (N=2): 29.268 and 30.1559 and 35.3428 and 67.4924 and 67.6121 and 48.0464
hTA1 C178S; M = -9
  C178S - Normalized Luminescence Counts (N=2): 15.623 and 14.3146 and 15.5763 and 45.7428 and 46.9395 and 50.4398
hTA1 C178S; M = -9.522
  C178S - Normalized Luminescence Counts (N=2): 4.128 and 7.025 and 6.23 and 17.8303 and 18.7278 and 23.3949
hTA1 C178S; M = -10
  C178S - Normalized Luminescence Counts (N=2): 3.707 (2×) and 2.258 and 5.325 and 8.915 and 9.424
hTA1 C178S; M = -10.522
  C178S - Normalized Luminescence Counts (N=2): 1.885 and 0.4359 and 0.8097 and 2.513 and 2.752 and 5.684
hTA1 C178S; M = -11
  C178S - Normalized Luminescence Counts (N=2): 0.4826 and 1.043 and -0.5921 and 4.667 and 6.223 and 4.577
hTA1 C178S; M = -11.522
  C178S - Normalized Luminescence Counts (N=2): 0.9967 and 0.3892 and 0.01533 and 3.919 and 5.445 and 4.457
hTA1 C178S; M = -12
  C178S - Normalized Luminescence Counts (N=2): 2.258 and 1.511 (2×) and 2.7223 and 4.936 and 4.158
hTA1 C178S; M = -12.522
  C178S - Normalized Luminescence Counts (N=2): 0.1555 and 0.7163 and 0.9032 and 5.3849 and 3.7993 and 4.607
hTA1 R83H; R83H mutant minus WT average
  ΔEmax values (each mutant value - WT average): -44.7513
  ΔpEC50 values (each mutant value - WT average): -0.3934 and -0.2739
hTA1 R83H; R83H mutant, each line an independent experiment, 3 replicates
  pEC50 values, Mean: 8.438 and 8.557
hTA1 R83H; R83H mutant, β-PEA = 100, each line an independent experiment, 3 replicates
  Emax values, Mean: 41.952 and 25.7686
hTA1 R83H; R83H, n=2
  Span ± SEM (Emax normalized to β-PEA): 33.86 ± 8.09
  pEC50 ± SEM: 8.5 ± 0.15
hTA1 R83H; R83H, n=2, read-out: EC50
  EC50: 3.18 nM
hTA1 C88/178S; C88/178S, n=2
  Span ± SEM (Emax normalized to β-PEA): 98.55 ± 7.35
  pEC50 ± SEM: 8.59 ± 0.09
hTA1 C88/178S; C88/178S, n=2, read-out: EC50
  EC50: 2.55 nM
hTA1 C88/178S; [2]
  pEC50 values, Mean: 8.403 and 8.782
  ΔEmax values (each mutant value - WT average), Mean: 4.495 and 19.1933
  ΔpEC50 values (each mutant value - WT average), Mean: -0.428 and -0.04873
hTA1 C88/178S; C88S, C178S, M = -5
  Normalized Luminescence Counts (N=2): 100.242 and 99.2245 and 97.2457 and 143.648 and 172.345 and 97.883
hTA1 C88/178S; C88S, C178S, M = -5.522
  Normalized Luminescence Counts (N=2): 90.9136 and 85.0903 and 89.8394 and 123.862 and 148.33 and 92.2945
hTA1 C88/178S; C88S, C178S, M = -6
  Normalized Luminescence Counts (N=2): 90.1221 and 88.8217 and 95.4931 and 103.622 and 111.174 and 99.9975
hTA1 C88/178S; C88S, C178S, M = -6.522
  Normalized Luminescence Counts (N=2): 99.5072 and 94.7581 and 94.2493 and 122.049 and 117.367 and 101.508
hTA1 C88/178S; C88S, C178S, M = -7
  Normalized Luminescence Counts (N=2): 91.3094 and 97.4719 and 93.062 and 116.159 and 110.872 and 102.263
hTA1 C88/178S; C88S, C178S, M = -7.522
  Normalized Luminescence Counts (N=2): 83.1115 and 82.2069 and 77.6274 and 88.2165 and 117.82 and 93.3518
hTA1 C88/178S; C88S, C178S, M = -8
  Normalized Luminescence Counts (N=2): 58.8572 and 57.8961 and 57.8396 and 93.8049 and 106.945 and 88.8206
hTA1 C88/178S; C88S, C178S, M = -8.522
  Normalized Luminescence Counts (N=2): 53.4862 and 36.4686 and 47.8325 and 84.7426 and 92.7477 and 67.222
hTA1 C88/178S; C88S, C178S, M = -9
  Normalized Luminescence Counts (N=2): 25.2178 and 28.61 and 25.7832 and 45.3213 and 51.816 and 46.9828
hTA1 C88/178S; C88S, C178S, M = -9.522
  Normalized Luminescence Counts (N=2): 8.822 and 11.8186 and 9.84 and 21.1551 and 21.4571 and 31.5768
hTA1 C88/178S; C88S, C178S, M = -10
  Normalized Luminescence Counts (N=2): 5.826 and 5.4299 (2×) and 35.5038 (2×) and 37.3163
hTA1 C88/178S; C88S, C178S, M = -10.522
  Normalized Luminescence Counts (N=2): 1.755 and 2.038 and 3.395 and 3.6345 and 2.124 and 3.483
hTA1 C88/178S; C88S, C178S, M = -11
  Normalized Luminescence Counts (N=2): 2.49 and 1.529 and 1.585 and 16.4728 and 32.9361 and 27.0456
hTA1 C88/178S; C88S, C178S, M = -11.522
  Normalized Luminescence Counts (N=2): 0.5677 and 1.529 and 0.7373 and 0.9158 and 1.369 and 1.973
hTA1 C88/178S; C88S, C178S, M = -12
  Normalized Luminescence Counts (N=2): 0.7939 and 1.472 and 1.1331 and 4.692 and 7.713 and 6.504
hTA1 C88/178S; C88S, C178S, M = -12.522
  Normalized Luminescence Counts (N=2): 1.698 and 0.6243 and 0.7373 and -0.4436 and 0.7648 and -1.803
hTA1 C88/178S; C88S, C178S, normalized (β-PEA = 100), each row is one independent experiment, 3 replicates
  Emax values, Mean: 91.1984 and 105.897
